The results in this text go back to paper PMC5037430 (Scientific Reports, 2016).

The structures appear in SMILES notation. pIC50: −log10 of the molar value. Where two headings read alike, the source gives them in different places.

This assay deals with T1, glycolate oxidase (GO); hydroxyacid oxidase 1 (HAO1) (Homo sapiens, UniProt Q9UJM8).
T1 construct: recombinant full-length human HAO1
T1 sequence (Q9UJM8 1-370): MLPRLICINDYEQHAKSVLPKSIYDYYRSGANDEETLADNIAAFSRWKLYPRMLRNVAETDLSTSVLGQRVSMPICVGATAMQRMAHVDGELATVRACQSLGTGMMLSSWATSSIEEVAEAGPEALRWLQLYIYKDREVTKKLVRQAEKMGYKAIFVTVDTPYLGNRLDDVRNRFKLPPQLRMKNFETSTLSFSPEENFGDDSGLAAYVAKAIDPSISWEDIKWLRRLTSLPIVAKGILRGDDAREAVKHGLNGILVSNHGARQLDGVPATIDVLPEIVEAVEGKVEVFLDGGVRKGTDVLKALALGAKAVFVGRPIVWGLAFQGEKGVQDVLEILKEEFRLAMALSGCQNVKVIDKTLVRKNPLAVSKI
Description: hydrogen peroxide-Amplex red GO enzymatic assay; partial inhibition, less than […] at […]. It counts as biochemical.

Turning to `CCCc1nc2c(C)cc(-c3nc4ccccc4n3C)cc2n1Cc1ccc(-c2ccccc2C(=O)O)cc1` [Telmisartan], the pIC50 was less than 4.00.

Take `CC[C@H](NC(=O)c1c(C)c(-c2ccccc2)nc2ccccc12)c1ccccc1` [SB 222200]: the negative logarithm of the IC50 (pIC50) (read-out: IC50) was less than 4.00.
